Assay results taken from publication PMC12546632, “The role of cytochrome bc1 inhibitors in future tuberculosis treatment regimens” (Nature Communications, 2025).
Converted amounts (≈) assume the structure as drawn. “And” between values parts separate entries of the source, which are not always exact repeats. Equal values may be shown once. “Also recorded” adds a separate entry of the source. Read-outs that look alike come from different tables or passages of the source. Marks after values point to notes of the source that are not given here.

Assays:
[1] = system: M. tuberculosis ΔcydAB (Parent); experiment: microbe, parasite or virus in culture; format: cell-based; conditions: Mycobacterium tuberculosis
[2] = system: MDR-TB strains; conditions: cited from earlier work
[3] = system: H37Rv_CydBd-KO; experiment: microbe, parasite or virus in culture; format: cell-based, Mycobacterium tuberculosis; conditions: Mycobacterium tuberculosis
[4] = in vitro; conditions: human
[5] = target: T1, 2C19 (Homo sapiens, UniProt P33261); format: in vitro ADME
T1 construct: from tissue; host or cells: human liver microsomes
T1 sequence (P33261 whole entry): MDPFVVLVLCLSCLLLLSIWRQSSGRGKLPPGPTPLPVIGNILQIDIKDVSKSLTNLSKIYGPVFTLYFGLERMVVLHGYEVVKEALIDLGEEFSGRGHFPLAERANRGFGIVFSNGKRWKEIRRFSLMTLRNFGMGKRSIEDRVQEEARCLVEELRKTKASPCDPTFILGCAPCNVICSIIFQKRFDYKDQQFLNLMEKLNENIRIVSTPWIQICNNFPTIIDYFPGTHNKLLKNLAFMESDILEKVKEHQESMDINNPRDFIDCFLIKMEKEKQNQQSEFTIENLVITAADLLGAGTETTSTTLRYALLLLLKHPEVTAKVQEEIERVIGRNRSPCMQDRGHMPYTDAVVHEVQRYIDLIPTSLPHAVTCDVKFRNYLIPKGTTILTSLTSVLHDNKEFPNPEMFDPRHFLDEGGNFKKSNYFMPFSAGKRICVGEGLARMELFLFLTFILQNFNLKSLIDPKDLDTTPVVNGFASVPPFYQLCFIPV

[6] = system: M. tuberculosis H37Rv; experiment: MBC99.9 determination, H37Rv; format: cell-based, Mycobacterium tuberculosis; conditions: Mycobacterium tuberculosis, H37RV
[7] = system: Salmonella typhimurium strains TA98 and TAMix
[8] = target: T2, 2D6 (Homo sapiens, UniProt P10635); format: in vitro ADME
T2 construct: from tissue; host or cells: human liver microsomes
T2 sequence (P10635 whole entry): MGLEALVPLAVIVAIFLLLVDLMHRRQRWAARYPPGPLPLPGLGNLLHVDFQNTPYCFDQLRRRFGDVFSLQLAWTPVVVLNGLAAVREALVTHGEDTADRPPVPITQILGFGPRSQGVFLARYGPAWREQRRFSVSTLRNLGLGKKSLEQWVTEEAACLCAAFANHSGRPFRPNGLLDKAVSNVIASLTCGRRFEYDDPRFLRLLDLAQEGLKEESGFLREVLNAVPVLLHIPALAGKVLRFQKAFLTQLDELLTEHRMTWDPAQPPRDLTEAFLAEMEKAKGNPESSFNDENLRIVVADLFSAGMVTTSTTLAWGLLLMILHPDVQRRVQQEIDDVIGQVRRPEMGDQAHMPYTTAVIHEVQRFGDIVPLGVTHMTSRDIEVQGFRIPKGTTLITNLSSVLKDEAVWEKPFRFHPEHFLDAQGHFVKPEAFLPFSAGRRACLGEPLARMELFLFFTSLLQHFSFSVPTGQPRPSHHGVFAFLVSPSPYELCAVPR

[9] = in vivo; conditions: CD-1, mouse; for half-life: t½
[10] = female, Balb/c, mouse, in vivo, po, 5 mg/kg
[11] = in vitro; conditions: human; remark: listed apart in the source
[12] = target: T3, 3A4 (Homo sapiens, UniProt P08684); format: in vitro ADME
T3 construct: from tissue; host or cells: human liver microsomes
T3 sequence (P08684 whole entry): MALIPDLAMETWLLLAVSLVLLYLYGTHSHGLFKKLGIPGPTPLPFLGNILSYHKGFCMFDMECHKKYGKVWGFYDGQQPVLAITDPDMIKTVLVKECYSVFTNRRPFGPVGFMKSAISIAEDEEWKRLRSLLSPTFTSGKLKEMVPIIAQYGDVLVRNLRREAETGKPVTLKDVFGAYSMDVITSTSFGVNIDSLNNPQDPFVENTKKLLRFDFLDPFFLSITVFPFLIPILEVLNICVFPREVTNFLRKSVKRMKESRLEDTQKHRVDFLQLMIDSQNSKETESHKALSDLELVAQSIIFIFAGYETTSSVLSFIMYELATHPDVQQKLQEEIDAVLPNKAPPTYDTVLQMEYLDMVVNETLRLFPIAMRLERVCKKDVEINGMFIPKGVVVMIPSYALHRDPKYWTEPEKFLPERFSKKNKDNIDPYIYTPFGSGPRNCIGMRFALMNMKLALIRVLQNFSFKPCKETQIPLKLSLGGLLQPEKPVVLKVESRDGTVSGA

[13] = system: WT H37Rv; format: cell-based, Mycobacterium tuberculosis; conditions: biological replicates
[14] = target: T4, 1A2 (Homo sapiens, UniProt P05177); format: in vitro ADME
T4 construct: from tissue; host or cells: human liver microsomes
T4 sequence (P05177 whole entry): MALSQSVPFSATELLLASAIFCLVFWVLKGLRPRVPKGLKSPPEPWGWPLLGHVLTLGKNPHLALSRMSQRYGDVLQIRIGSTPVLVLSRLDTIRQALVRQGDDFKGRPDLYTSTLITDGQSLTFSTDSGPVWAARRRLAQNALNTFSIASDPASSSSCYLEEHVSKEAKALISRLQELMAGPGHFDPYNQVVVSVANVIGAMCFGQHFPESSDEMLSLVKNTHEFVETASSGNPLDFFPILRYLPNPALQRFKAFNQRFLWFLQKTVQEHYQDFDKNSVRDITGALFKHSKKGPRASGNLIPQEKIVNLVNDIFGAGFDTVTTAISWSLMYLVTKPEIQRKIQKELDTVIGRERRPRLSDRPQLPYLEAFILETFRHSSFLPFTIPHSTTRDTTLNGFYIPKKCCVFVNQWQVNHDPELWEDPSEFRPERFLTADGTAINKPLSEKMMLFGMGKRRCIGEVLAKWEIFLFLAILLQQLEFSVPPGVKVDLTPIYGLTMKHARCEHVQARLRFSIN

[15] = in vivo; conditions: female, Balb/c, mouse, po, 5 mg/kg
[16] = format: in vitro ADME; conditions: hepatocytes
[17] = target: T5, 2C8 (Homo sapiens, UniProt P10632); format: in vitro ADME
T5 construct: from tissue; host or cells: human liver microsomes
T5 sequence (P10632 whole entry): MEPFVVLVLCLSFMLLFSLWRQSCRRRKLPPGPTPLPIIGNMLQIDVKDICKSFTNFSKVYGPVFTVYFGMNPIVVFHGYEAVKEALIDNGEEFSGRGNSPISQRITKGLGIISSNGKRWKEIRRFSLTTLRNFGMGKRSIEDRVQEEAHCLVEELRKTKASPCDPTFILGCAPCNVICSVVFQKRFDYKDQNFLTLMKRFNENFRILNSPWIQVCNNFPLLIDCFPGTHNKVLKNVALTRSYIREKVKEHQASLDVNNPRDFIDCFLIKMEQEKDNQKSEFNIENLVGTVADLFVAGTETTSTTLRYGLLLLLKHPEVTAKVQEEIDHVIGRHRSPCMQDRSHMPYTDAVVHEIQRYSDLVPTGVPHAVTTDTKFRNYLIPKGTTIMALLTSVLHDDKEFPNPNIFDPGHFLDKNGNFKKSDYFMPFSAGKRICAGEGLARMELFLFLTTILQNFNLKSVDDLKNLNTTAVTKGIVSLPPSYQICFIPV

[18] = system: HepG2 cells; conditions: human, 24 h
[19] = format: in vitro ADME
Method: (§1) Details of the metabolic stability in liver microsomes and hepatocytes together with CYP inhibition in human liver microsomes and plasma protein binding have been published previously. The CYP induction assay was conducted by Puracyp Inc (www.puracyp.com). Studies were designed to evaluate the effect of compounds on the activation of human PXR (hPXR). The DPX2TM cells harbour the human PXR gene (NR1I2) and a luciferase reporter gene linked to two promoters identified in the human CYP3A4 gene, namely XREM and PXRE. These cells were seeded in a 96-well plate. Twenty-four hours after seeding, the cells were treated with various concentrations of compounds then incubated for an additional 24 h. Following this, the number of viable cells per well were determined using Promega’s CellTiter Fluor Cytotoxicity Assay. Briefly, One-Glo was added to the same wells and reporter gene activity was assessed. The luminescence light intensity was directly proportional to the extent of PXR activation and accompanying gene transcription in the DPX2TM cells.

[20] = target: human PXR (hPXR) (Homo sapiens, UniProt O75469); format: in vitro ADME
Sequence of human PXR (hPXR) (O75469 whole entry): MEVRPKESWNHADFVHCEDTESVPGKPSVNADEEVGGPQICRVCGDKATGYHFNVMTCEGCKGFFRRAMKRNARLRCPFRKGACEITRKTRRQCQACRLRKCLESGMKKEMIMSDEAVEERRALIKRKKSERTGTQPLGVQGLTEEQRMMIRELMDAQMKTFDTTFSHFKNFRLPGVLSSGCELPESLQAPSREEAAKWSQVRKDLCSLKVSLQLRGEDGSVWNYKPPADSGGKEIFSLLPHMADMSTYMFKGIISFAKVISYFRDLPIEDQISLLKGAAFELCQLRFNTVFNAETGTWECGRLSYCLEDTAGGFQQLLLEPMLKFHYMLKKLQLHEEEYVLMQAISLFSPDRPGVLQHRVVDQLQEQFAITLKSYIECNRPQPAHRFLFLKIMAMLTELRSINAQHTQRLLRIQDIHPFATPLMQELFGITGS
Method: as §1

[21] = system: N1283 clinical isolate; format: cell-based, Mycobacterium tuberculosis; conditions: biological replicates
[22] = CD-1, mouse, in vivo
[23] = target: T6, 2C9 (Homo sapiens, UniProt P11712); format: in vitro ADME
T6 construct: from tissue; host or cells: human liver microsomes
T6 sequence (P11712 whole entry): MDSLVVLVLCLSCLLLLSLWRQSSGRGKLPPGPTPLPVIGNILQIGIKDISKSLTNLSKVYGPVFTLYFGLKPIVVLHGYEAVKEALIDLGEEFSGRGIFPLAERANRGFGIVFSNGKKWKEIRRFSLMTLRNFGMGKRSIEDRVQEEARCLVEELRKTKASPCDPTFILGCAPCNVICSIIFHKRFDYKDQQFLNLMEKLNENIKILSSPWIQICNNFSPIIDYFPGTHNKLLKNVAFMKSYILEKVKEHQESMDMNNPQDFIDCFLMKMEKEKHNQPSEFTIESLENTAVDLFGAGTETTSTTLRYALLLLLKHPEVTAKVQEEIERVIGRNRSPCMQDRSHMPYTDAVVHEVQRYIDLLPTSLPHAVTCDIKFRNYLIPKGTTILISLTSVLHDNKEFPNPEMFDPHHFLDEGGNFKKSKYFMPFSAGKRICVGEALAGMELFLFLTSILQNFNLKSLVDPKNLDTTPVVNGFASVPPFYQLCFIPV

[24] = system: M. tuberculosis reference strain H37Rv; experiment: Survival under monotherapy in intravenous model (related to Study C); format: in vivo, Mycobacterium tuberculosis; conditions: for Day of death, individual mice: monotherapy, read with the 1/0 flag of the same line (96 with flag 0)
[25] = system: M. tuberculosis H37Rv; experiment: MIC90 determination, H37Rv; format: cell-based, Mycobacterium tuberculosis; conditions: Mycobacterium tuberculosis
[26] = system: M. tuberculosis cytochrome bd knockout (CytBd-KO) strain; set-up: method as in PMID 40191462; conditions: acute mouse model; cited from earlier work
[27] = system: H37Rv_CytBd-KO; experiment: microbe, parasite or virus in culture; format: cell-based, Mycobacterium tuberculosis; conditions: Mycobacterium tuberculosis; read-out: MBC99.9 (H37Rv_CytBd-KO)
[28] = system: M. tuberculosis clinical isolates; experiment: microbe, parasite or virus in culture; format: cell-based, Mycobacterium tuberculosis; conditions: Mycobacterium tuberculosis

NNC(=O)c1ccncc1 [Isoniazid, isoniazid]
MIC50 [1]: 0.51 µM (≈ 0.0699 µg/mL)

CCc1nc2ccc(Cl)cn2c1C(=O)NCc1ccc(C2CC3(C2)CN(S(=O)(=O)C(F)(F)F)C3)cc1 [JNJ-2901]
activity against MDR-TB strains [2]: sub-nanomolar; also recorded: more active compared to lab-adapted strains | MIC90 [3]: 0.006 µM (≈ 0.00325 µg/mL) | MIC50 [1]: 0.01 µM (≈ 0.00541 µg/mL) | IC50 at 24 h [4]: > 100 µM | IC50 [5]: > 10 µM | MBC [6]: > 0.5 µM | Mutagenicity (AMES II) [7]: negative | IC50 [8]: > 10 µM | MRT ([9]; iv, 1 mg/kg): 9.1 ± 0.6 h | Vd ([9]; iv, 1 mg/kg): 4.4 ± 0.8 L/kg | clearance ([9]; iv, 1 mg/kg): 6.4 ± 1.6 mL/min/kg | half-life ([9]; iv, 1 mg/kg): 12 ± 0.2 h | bioavailability ([9]; female, po, 5 mg/kg): 70 ± 14% | AUC0-inf ([9]; female, po, 5 mg/kg, AUC0-inf): 9500 ± 1850 ng·h/mL | Cmax ([9]; female, po, 5 mg/kg, Cmax): 474 ± 29 ng/mL | Tmax ([9]; female, po, 5 mg/kg, Tmax): 7 h | half-life ([9]; female, po, 5 mg/kg): 10 h | AUC0-inf [10]: 28500 ± 935 ng·h/mL | IC20 at 72 h [11]: 11.8 µM | IC50 [12]: > 10 µM | CFU counts ([13]; Conc 8 nM): 80000000 CFU and 35000000 CFU and 53000000 CFU and 30000000 CFU | CFU counts ([13]; Conc 32 nM): 60000000 CFU and 30000000 CFU and 17000000 CFU and 12000000 CFU | CFU counts ([13]; Conc 128 nM): 20000000 CFU and 14000000 CFU and 12000000 CFU | IC50 [14]: > 10 µM | Cmax [15]: 2310 ± 767 ng/mL | AUC0-inf ([15]; AUC0-inf): 38500 ng·h/mL | Cmax ([15]; Cmax, Balb/c mouse, PO 5 mg kg-1, 0.5 w/v Methocel (susp.)): 2660 ± 469 ng/mL | half-life ([15]; t½): 8.6 ± 2.8 h | Mouse Hep Clint [16]: 15 µL min-1 106 cells-1 | IC50 [17]: > 10 µM | IC50 [18]: > 100 µM | Dog Hep Clint ([19]; hepatocytes): 13 µL min-1 106 cells-1 | Human Hep Clint ([19]; hepatocytes): 10 µL min-1 106 cells-1 | Rat Hep Clint ([19]; hepatocytes): 16 µL min-1 106 cells-1 | Dog LM Clint ([19]; microsomes): 13.1 µL min-1 mg protein-1 | Human LM Clint ([19]; microsomes): 63.3 µL min-1 mg protein-1 | Mouse LM Clint ([19]; microsomes): 41.0 µL min-1 mg protein-1 | Rat LM Clint ([19]; microsomes): 17.9 µL min-1 mg protein-1 | Cyp3A4 ind. (%ctrl) ([20]; 1.25 µM): 3.1 %ctrl | Cyp3A4 ind. (%ctrl) ([20]; 10 µM): 11 %ctrl | CFU counts ([21]; Conc 8 nM): 9000000 CFU and 800000 CFU and 200000 CFU | CFU counts ([21]; Conc 32 nM): 110000 CFU and 300000 CFU and 80000 CFU and 50000 CFU | CFU counts ([21]; Conc 128 nM): 20000 CFU and 50000 CFU and 90000 CFU and 80000 CFU | CLp as % LBF ([22]; iv, 1 mg/kg): ~ 9 % LBF | AUC0-inf ([22]; female, po, 5 mg/kg): 5287 ± 656 ng·h/mL | IC50 [23]: > 10 µM | Day of death, individual mice ([24]; intravenous model, listed as J-901): 16* and 20 and 54 and 26 and 77 and 82 | Survival of mice under monotherapy ([24]; intravenous model, six mice per group, treated for three months, 5 days per week, bedaquiline 25, moxifloxacin 100, JNJ-2901 10 mg kg-1): inability to rescue mice | MIC90 ([25]; H37RV, read-out: MIC90 (H37Rv)): 0.009 µM (≈ 0.00487 µg/mL) | reduction in bacterial burden [26]: 4 log | MBC [27]: 0.015 µM (≈ 0.00811 µg/mL)

CO[C@H]1/C=C/O[C@@]2(C)Oc3c(C)c(O)c4c(O)c(c(/C=N/N5CCN(C)CC5)c(O)c4c3C2=O)NC(=O)/C(C)=C\C=C\[C@H](C)[C@H](O)[C@@H](C)[C@@H](O)[C@@H](C)[C@H](OC(C)=O)[C@@H]1C [Rifampicin, rifampicin]
MIC50 [1]: 0.1 µM (≈ 0.0823 µg/mL)

COc1c(N2C[C@@H]3CCCN[C@@H]3C2)c(F)cc2c(=O)c(C(=O)O)cn(C3CC3)c12 [Moxifloxacin, moxifloxacin, reference compound]
Survival of mice under monotherapy ([24]; in vivo, iv): 100% | Day of death, individual mice ([24]; intravenous model): 96

COc1nc2ccc(Br)cc2cc1[C@@H](c1ccccc1)[C@@](O)(CCN(C)C)c1cccc2ccccc12 [Bedaquiline, bedaquiline, reference compound]
MIC50 [1]: 0.05 µM (≈ 0.0278 µg/mL) | MIC90 ([28]; strain Mtb-0617 (Karonga, lineage 3)): 0.431 µM (≈ 0.239 µg/mL) | MIC90 ([28]; strain Mtb-2703 (Karonga, lineage 3)): 0.064 µM (≈ 0.0356 µg/mL) | MIC90 ([28]; strain Mtb-4779 (Karonga, lineage 2)): 0.045 µM (≈ 0.025 µg/mL) | MIC90 ([28]; strain Mtb-4980 (Karonga, lineage 4)): 0.063 µM (≈ 0.035 µg/mL) | MIC90 ([28]; strain Mtb-6787 (Karonga, lineage 4)): 0.053 µM (≈ 0.0294 µg/mL) | MIC90 ([28]; strain Mtb-7489 (Karonga, lineage 1)): 0.43 µM (≈ 0.239 µg/mL) | MIC90 ([28]; strain Mtb-7496 (Karonga, lineage 3)): 0.106 µM (≈ 0.0589 µg/mL) | MIC90 ([28]; strain Mtb-9271 (Karonga, lineage 4)): 0.05 µM (≈ 0.0278 µg/mL) | MIC90 ([28]; strain Mtb-61164 (Karonga, lineage 2)): 0.188 µM (≈ 0.104 µg/mL) | MIC90 ([28]; strain N0054 (Gagneux, lineage 3)): 0.354 µM (≈ 0.197 µg/mL) | MIC90 ([28]; strain N0072 (Gagneux, lineage 1)): 0.17 µM (≈ 0.0944 µg/mL) | MIC90 ([28]; strain N1283 (Gagneux, lineage 4)): 0.104 µM (≈ 0.0578 µg/mL) | Survival of mice under monotherapy ([24]; in vivo, iv): 100% | Day of death, individual mice ([24]; intravenous model): 96 | MIC90 ([25]; strain H37Rv (Institut Pasteur, lineage 4), read-out: MIC90): 0.197 µM (≈ 0.109 µg/mL)
